{"source": "patent US20060233841A1", "about": "“Implantable gel compositions and method of manufacture” (priority 1999, published 2006)", "origin": "cited, not measured here", "details": "reported value; solubility values considered to be determined at 20° C.", "data": [{"smiles": "CC(=O)OCC(COC(C)=O)OC(C)=O", "note": "[triacetin]", "values": [{"measurement": "solubility in water", "result": "7.17 grams in 100 ml of water"}]}]}
